Measurements taken from paper PMC10609061, “Detection of Various Traditional Chinese Medicinal Metabolites as Angiotensin-Converting Enzyme Inhibitors: Molecular Docking, Activity Testing, and Surface Plasmon Resonance Approaches” (Molecules, 2023).

Experiments:
[1] = target: T1, recombinant soluble C domain of ACE1 (sACE1) (Homo sapiens, UniProt P12821); assay: SPR determination of affinity between TCM metabolites and immobilized sACE1 (Biacore T200, CM5 chip); assay type: binding; settings: for Binding to sACE1 by SPR (in words): SPR assay; for Kd: SPR, sACE1 on CM5 chip, 0.39-50.0 µM metabolite, 25 °C, read-out: KD (equilibrium dissociation constant)
T1 construct: The cDNA coding for the soluble C domain of ACE1 (Ile640-Ala1231) was obtained by PCR amplification; HSA signal peptide (N); made in house; host or cells: HEK293 (transient transfection, protein purified from the culture supernatant)
T1 sequence (P12821 640-1231): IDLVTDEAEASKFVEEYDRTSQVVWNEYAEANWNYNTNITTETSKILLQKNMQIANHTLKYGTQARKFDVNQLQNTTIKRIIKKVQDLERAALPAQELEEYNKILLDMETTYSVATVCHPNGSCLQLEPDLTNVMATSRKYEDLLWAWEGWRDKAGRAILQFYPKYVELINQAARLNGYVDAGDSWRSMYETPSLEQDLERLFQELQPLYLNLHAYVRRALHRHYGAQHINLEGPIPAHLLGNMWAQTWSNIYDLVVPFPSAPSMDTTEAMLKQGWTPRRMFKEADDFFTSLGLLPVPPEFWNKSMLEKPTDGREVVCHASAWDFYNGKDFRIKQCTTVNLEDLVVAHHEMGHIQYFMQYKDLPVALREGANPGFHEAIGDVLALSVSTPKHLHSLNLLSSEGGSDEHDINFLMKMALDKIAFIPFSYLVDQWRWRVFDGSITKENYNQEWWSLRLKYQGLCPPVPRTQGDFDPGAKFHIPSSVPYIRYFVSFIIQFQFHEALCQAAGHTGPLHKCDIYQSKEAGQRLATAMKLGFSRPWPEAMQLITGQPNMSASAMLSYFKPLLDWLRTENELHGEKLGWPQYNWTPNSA

[2] = test system: ACE1 (angiotensin-converting enzyme); assay: ACE inhibition measurement with ACE1 activity test kit (fluorescence); assay type: biochemical; settings: for Inhibition rate (%) of ACE1 activity, relative to captopril taken as 100%: TCM metabolite at 25 uM

| Molecule | Binding to sACE1 by SPR (in words) [1] | Inhibition rate (%) of ACE1 activity, relative to captopril taken as 100% [2] [%] | Kd [1] [µM] | Inhibition rate (%) of ACE1 activity ([2]; captopril (positive control) at 1 uM) [%] | ACE1 inhibition in vitro (in words) ([2]; enzyme activity test) |
| --- | --- | --- | --- | --- | --- |
| Procyanidin | bound to sACE1 on the chip in a dose-dependent manner | 67.5 | – | – | – |
| O=c1cc(-c2ccc(O)c(O)c2)oc2cc(O)c([C@@H]3O[C@H](CO)[C@@H](O)[C@H](O)[C@H]3O)c(O)c12 [Homoorientin] | bound to sACE1 on the chip in a dose-dependent manner | – | 10.2 | – | – |
| O=c1cc(-c2ccc(O)c(O)c2)oc2c([C@@H]3O[C@H](CO)[C@@H](O)[C@H](O)[C@H]3O)c(O)cc(O)c12 [Orientin] | bound to sACE1 on the chip in a dose-dependent manner | – | 9.32 | – | – |
| O=c1c(O)c(-c2ccc(O)c(O)c2)oc2cc(O)cc(O)c12 [Quercetin] | bound to sACE1 on the chip in a dose-dependent manner | – | – | – | – |
| C[C@H](CS)C(=O)N1CCC[C@H]1C(=O)O [Captopril, reference compound] | – | – | – | 101.5 | – |
| O=c1c(O[C@@H]2O[C@H](CO)[C@@H](O)[C@H](O)[C@H]2O)c(-c2ccc(O)c(O)c2)oc2cc(O)cc(O)c12 [Isoquercitrin] | bound to sACE1 on the chip in a dose-dependent manner | 35.6 | 5.76 | – | – |
| Oc1ccc(/C=C/c2cc(O)cc(O)c2)cc1 [Resveratrol] | – | – | – | – | did not inhibit ACE1 in vitro |
| Oc1cc(O)c2c(c1)O[C@H](c1ccc(O)c(O)c1)[C@@H](O)C2 [Cianidanol] | bound to sACE1 on the chip in a dose-dependent manner | – | 48.3 | – | – |
| O=c1c(-c2ccc(O)cc2)coc2c([C@@H]3O[C@H](CO)[C@@H](O)[C@H](O)[C@H]3O)c(O)ccc12 [Puerarin] | bound to sACE1 on the chip in a dose-dependent manner | – | 13.8 | – | – |
